Experimental data reported in publication PMC9820763, “The Functional Characterization of Carboxylesterases Involved in the Degradation of Volatile Esters Produced in Strawberry Fruits” (International Journal of Molecular Sciences, 2022).

Columns and labels:
rFaCXE3 (FaCXE3) = system: T1, rFaCXE3 (FaCXE3); test: GC-MS of alcohol product, double-reciprocal plot; assay type: biochemical, Fragaria x ananassa; settings: Tris-HCl 100 mM, pH 7.5, 30 °C
T1 construct: fusion protein about 35-40 kDa; cloned from strawberry green fruit cDNA
Text: GC-MS of alcohol product, double-reciprocal plot on rFaCXE3 (FaCXE3)

rFaCXE2 (FaCXE2) = system: T2, rFaCXE2 (FaCXE2); test: GC-MS of alcohol product, double-reciprocal plot; assay type: biochemical, Fragaria x ananassa; settings: Tris-HCl 100 mM, pH 7.5, 30 °C
T2 construct: fusion protein about 35-40 kDa; cloned from strawberry green fruit cDNA
Text: GC-MS of alcohol product, double-reciprocal plot on rFaCXE2 (FaCXE2)

| Km (rFaCXE3 (FaCXE3)) [µM] | Km (rFaCXE2 (FaCXE2)) [µM] | Structure (SMILES) |
| --- | --- | --- |
| 980 ± 110 | 1040 ± 50 | CCC/C=C/COC(C)=O [E-2-Hexenyl acetate] |
| 840 ± 70 | 10900 ± 840 | CCCCCCOC(C)=O [Hexyl acetate] |
| 950 ± 50 | 2500 ± 130 | CC/C=C\CCOC(C)=O [Z-3-Hexenyl acetate] |
